The test system of one assay is mouse splenocytes. Kind of assay: Splenic cell proliferation assay (anti-IgM stimulated B cell proliferation, Cell Titer-Glo). To be noted: Splenocyte; CD1 mouse splenocytes, 1 h pre-treatment, 2.5 ug/ml anti-IgM F(ab')2 for 72 h; read-out: EC50 (nM), Inhibition of splenic cell proliferation. It is filed as cell-based. On the procedure:
Splenic Cell Proliferation Assay
Splenocytes were obtained from 6 week old male CD1 mice (Charles River Laboratories Inc.). Mouse spleens were manually disrupted in PBS and filtered using a 70 μm cell strainer followed by ammonium chloride red blood cell lysis. Cells were washed, resuspended in Splenocyte Medium (HyClone RPMI supplemented with 10% heat-inactivated FBS, 0.5× non-essential amino acids, 10 mM HEPES, 50 uM beta mercaptoethanol) and incubated at 37° C., 5% CO2 for 2 h to remove adherent cells. Suspension cells were seeded in 96 well plates at 50,000 cells per well and incubated at 37° C., 5% CO2 for 1 h. Splenocytes were pre-treated in triplicate with 10,000 nM curves of Formula 1 compounds for 1 h, followed by stimulation of B cell proliferation with 2.5 ug/ml anti-IgM F(ab′)2 (Jackson ImmunoResearch) for 72 h. Cell proliferation was measured by Cell Titer-Glo Luminescent Assay (Promega). EC50 values (50% proliferation in the presence of compound as compared to vehicle treated controls) were calculated from dose response compound curves using GraphPad Prism Software.
EC50 values are reported in Table 4: • a—Less than 100 nM; b—less than 1000 nM; c—more than 1000 nM

For assay [1], the target named is T1, histidine tagged recombinant human full-length Bruton Agammaglobulinemia Tyrosine Kinase (Btk) (Homo sapiens, UniProt Q06187).
T1 construct: recombinant human full-length Bruton Agammaglobulinemia Tyrosine Kinase (Btk); histidine tag
In words: Btk kinase inhibition assay (fluorescence polarization, KinEASE FP Fluorescein Green). Format: biochemical. Particulars: 10 μM ATP, 250 μM substrate, 60 minutes, room temperature; Ki from IC50 by Cheng-Prusoff; read-out: ki50 (nM), Inhibition of Btk. How it is done: Kinase Binding Btk and Lck Kinase Inhibition Assay
Fluorescence polarization-based kinase assays were performed in 384 well-plate format using histidine tagged recombinant human full-length Bruton Agammaglobulinemia Tyrosine Kinase (Btk) or histidine tagged recombinant Human Lymphocyte-Specific Protein Tyrosine Kinase (Lck) and a modified protocol of the KinEASE™ FP Fluorescein Green Assay supplied from Millipore. Kinase reaction were performed at room temperature for 60 minutes in presence of 250 μM substrate, 10 μM ATP and variable test article concentrations. The reaction was stopped with EDTA/kinease detection reagents and the polarization measured on a Tecan 500 instrument. From the dose-response curve obtained, the IC50 was calculated using Graph Pad Prisms® using a non-linear fit curve. The Km for ATP on each enzyme was experimentally determined and the Ki values calculated using the Cheng-Prusoff equation (see: Cheng Y, Prusoff W H. (1973) Relationship between the inhibition constant (K1) and the concentration of inhibitor which causes 50 percent inhibition (I50) of an enzymatic reaction”. Biochem Pharmacol 22 (23): 3099-108).
ki values are reported in Tables 2 and 3: • a—Less than 100 nM; b—less than 1000 nM; c—more than 1000 nM
For orientation: Fluorescence polarisation rises when a labelled molecule tumbles more slowly, as on binding a larger partner.

Some results are limits rather than exact numbers.

T1 sequence (Q06187 whole entry): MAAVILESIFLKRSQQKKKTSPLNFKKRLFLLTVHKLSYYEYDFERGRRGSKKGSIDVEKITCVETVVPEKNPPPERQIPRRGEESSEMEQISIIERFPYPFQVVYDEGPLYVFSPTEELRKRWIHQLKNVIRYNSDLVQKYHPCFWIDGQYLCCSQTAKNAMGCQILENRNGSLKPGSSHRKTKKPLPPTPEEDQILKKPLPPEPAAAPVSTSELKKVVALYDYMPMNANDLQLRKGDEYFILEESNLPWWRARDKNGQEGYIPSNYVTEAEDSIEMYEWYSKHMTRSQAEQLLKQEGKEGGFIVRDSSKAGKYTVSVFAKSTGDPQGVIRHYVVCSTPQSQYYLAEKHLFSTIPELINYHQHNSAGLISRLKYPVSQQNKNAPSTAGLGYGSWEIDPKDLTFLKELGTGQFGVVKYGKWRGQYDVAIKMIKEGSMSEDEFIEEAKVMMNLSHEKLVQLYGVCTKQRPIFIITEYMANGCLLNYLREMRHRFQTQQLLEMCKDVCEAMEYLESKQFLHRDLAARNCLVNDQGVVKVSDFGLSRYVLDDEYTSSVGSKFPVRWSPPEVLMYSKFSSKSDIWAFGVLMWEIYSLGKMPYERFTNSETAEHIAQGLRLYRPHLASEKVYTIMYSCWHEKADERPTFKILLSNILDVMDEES

Take `COc1cccc(COc2cccc(Oc3ccc(-n4c5c(c6ncnc(N)c64)C(C)OC5)cc3)c2)c1` (stereo not drawn) [Compound 103]: the EC50 in the assay with mouse splenocytes fell in the range of 100 to 1000 nM. In addition, the Ki in assay [1] was under 100 nM. On the same counts, the results for `CC1OCc2c1c1ncnc(N)c1n2-c1ccc(Oc2cccc(OCc3cccc(N)c3)c2)cc1` (stereo not drawn) [Compound 116] are 100 to 1000 nM and under 100 nM. For `CC1OCc2c1c1ncnc(N)c1n2-c1ccc(Oc2cccc(NC(=O)c3ccc(Cl)cc3)c2)cc1` (stereo not drawn) [Compound 120], in that order: 100 to 1000 nM and under 100 nM. As for `CC1OCc2c1c1ncnc(N)c1n2-c1ccc(Oc2cccc(OCc3ccccc3F)c2)cc1` (stereo not drawn) [Compound 94], the EC50 with mouse splenocytes fell in the range of 100 to 1000 nM. Besides, the Ki in assay [1] is under 100 nM. For `CC(=O)Nc1cccc(COc2cccc(Oc3ccc(-n4c5c(c6ncnc(N)c64)C(C)OC5)cc3)c2)c1` (stereo not drawn) [Compound 106], in that order: 100 to 1000 nM and under 100 nM. For `CC1OCc2c1c1ncnc(N)c1n2-c1ccc(Oc2cccc(NC(=O)c3ccc(F)cc3)c2)cc1` (stereo not drawn) [Compound 112], in that order: 100 to 1000 nM and under 100 nM.

Take `CC1OCc2c1c1ncnc(N)c1n2-c1ccc(Oc2cccc(O[C@H](C)c3ccccc3)c2)cc1` (stereo partly drawn) [Compound 78]: the EC50 in the assay on mouse splenocytes was over 1000 nM. For the same molecule, the Ki in assay [1] is under 1000 nM.

As to `CC1OCc2c1c1ncnc(N)c1n2-c1ccc(Oc2cccc(N(C)C)c2)cc1` (stereo not drawn) [Compound 70], in the assay on mouse splenocytes, the EC50 lay in the range of 100 to 1000 nM. In assay [1], the Ki is under 1000 nM. Take `Nc1ncnc2c3c(n(-c4ccc(Oc5ccccc5)cc4)c12)CCN(C(=O)c1ccccc1)C3` [Compound 16]: in assay [1], the Ki is over 1000 nM. Regarding `CC1OCc2c1c1ncnc(N)c1n2-c1ccc(Oc2cccc(OCc3ccccn3)c2)cc1` (stereo not drawn) [Compound 75], the EC50 with mouse splenocytes was over 1000 nM. For the same molecule, the Ki in assay [1] was under 100 nM. For `CC1OCc2c1c1ncnc(N)c1n2-c1ccc(Oc2cccc(OCCCN(C)C)c2)cc1` (stereo not drawn) [Compound 73], in that order: over 1000 nM and over 1000 nM. Consider `CC1OCc2c1c1ncnc(N)c1n2-c1ccc(Oc2cccc(OCc3ccccc3C#N)c2)cc1` (stereo not drawn) [Compound 96], for which, in the assay with mouse splenocytes, the EC50 was under 100 nM. Also, the Ki in assay [1] is under 100 nM.

Take `COc1ccc(OCc2cccc(Oc3ccc(-n4c5c(c6ncnc(N)c64)C(C)OC5)cc3)c2)cc1` (stereo not drawn) [Compound 131]: the EC50 in the assay on mouse splenocytes was 100 to 1000 nM. The Ki in assay [1] was under 100 nM.

As to `N#Cc1ccccc1COc1cccc(Oc2ccc(-n3c4c(c5ncnc(N)c53)COC4)cc2)c1` [Compound 143], the EC50 with mouse splenocytes is 100 to 1000 nM. Further, the Ki in assay [1] is under 100 nM. For `CC1OCc2c1c1ncnc(N)c1n2-c1ccc(Oc2cccc(NC(=O)c3ccccc3F)c2)cc1` (stereo not drawn) [Compound 125], in that order: 100 to 1000 nM and under 100 nM. On the same counts, the results for `CC1OCc2c1c1ncnc(N)c1n2-c1ccc(Oc2cccc(NCc3ccccc3)c2)cc1` (stereo not drawn) [Compound 69] are over 1000 nM and under 100 nM. On the same counts, the results for `CC(C)COc1cccc(Oc2ccc(-n3c4c(c5ncnc(N)c53)C(C)OC4)cc2)c1` (stereo not drawn) [Compound 135] are 100 to 1000 nM and under 100 nM. With `CC(C)CC(=O)Nc1cccc(Oc2ccc(-n3c4c(c5ncnc(N)c53)C(C)OC4)cc2)c1` (stereo not drawn) [Compound 114], the EC50 in the assay with mouse splenocytes fell in the range of 100 to 1000 nM. Also, the Ki in assay [1] is under 100 nM. On the same counts, the results for `CC1OCc2c1c1ncnc(N)c1n2-c1ccc(Oc2ccc(C#N)cc2)cc1` (stereo not drawn) [Compound 71] are over 1000 nM and over 1000 nM.

Turning to `CC1OCc2c1c1ncnc(N)c1n2-c1ccc(Oc2cccc(OCCc3ccccc3)c2)cc1` (stereo not drawn) [Compound 77], the EC50 with mouse splenocytes lay in the range of 100 to 1000 nM. Besides, in assay [1], the Ki was under 100 nM. As for `Nc1ncnc2c3c(n(-c4ccc(Oc5ccccc5)cc4)c12)CS(=O)(=O)C3` [Compound 65], the EC50 in the assay with mouse splenocytes was over 1000 nM. In addition, the Ki in assay [1] was over 1000 nM. On to `Nc1ncnc2c3c(n(-c4ccc(Oc5ccccc5)cc4)c12)CSC3` [Compound 63], for which, in the assay on mouse splenocytes, the EC50 is over 1000 nM. Also, the Ki in assay [1] was over 1000 nM. In the case of `COc1cccc(OCc2cccc(Oc3ccc(-n4c5c(c6ncnc(N)c64)C(C)OC5)cc3)c2)c1` (stereo not drawn) [Compound 137], in the assay on mouse splenocytes, the EC50 is 100 to 1000 nM. For the same molecule, in assay [1], the Ki is under 100 nM.

Regarding `CC1OCc2c1c1ncnc(N)c1n2-c1ccc(Oc2cccc(OCc3cccc([N+](=O)[O-])c3)c2)cc1` (stereo not drawn) [Compound 113], the EC50 in the assay with mouse splenocytes lay within 100 to 1000 nM. Further, the Ki in assay [1] is under 100 nM. `Nc1ncnc2c3c(n(-c4ccc(Oc5ccccc5)cc4)c12)CCN(S(=O)(=O)c1ccccc1)C3` [Compound 12]: the Ki in assay [1] is over 1000 nM. Same read-out and setting: the figure for `CC(=O)Nc1ccc(COc2cccc(Oc3ccc(-n4c5c(c6ncnc(N)c64)C(C)OC5)cc3)c2)cc1` (stereo not drawn) [Compound 109] is under 1000 nM.

For the molecule `COc1ccccc1COc1cccc(Oc2ccc(-n3c4c(c5ncnc(N)c53)C(C)OC4)cc2)c1` (stereo not drawn) [Compound 108], the EC50 in the assay with mouse splenocytes fell in the range of 100 to 1000 nM. Besides, the Ki in assay [1] was under 100 nM. For `CC1OCc2c1c1ncnc(N)c1n2-c1ccc(Oc2cccc(NC(=O)c3ccccc3)c2)cc1` (stereo not drawn) [Compound 82], in that order: over 1000 nM and under 100 nM.

In the case of `CC1OCc2c1c1ncnc(N)c1n2-c1ccc(Oc2ccccc2)nc1` (stereo not drawn) [Compound 88], the Ki in assay [1] was over 1000 nM. On the same count and under the same terms, the figure for `NCC(=O)N1Cc2c(n(-c3ccc(Oc4ccccc4)cc3)c3c(N)ncnc23)C1` [Compound 19] is over 1000 nM. In the case of `CC1OCc2c1c1ncnc(N)c1n2-c1ccc(Oc2cccc(N)c2)cc1` (stereo not drawn) [Compound 47], the Ki in assay [1] was under 1000 nM.

In the case of `CC1OCc2c1c1ncnc(N)c1n2-c1ccc(Oc2cccc(OCCN3CCCC3)c2)cc1` (stereo not drawn) [Compound 52], the Ki in assay [1] was over 1000 nM. On the same count and under the same terms, to `CC1OCc2c1c1ncnc(N)c1n2-c1ccc(Oc2cccc(OCc3cncn3C)c2)cc1` (stereo not drawn) [Compound 93] belongs under 100 nM; to `CC1OCc2c1c1ncnc(N)c1n2-c1ccc(Oc2cccc(N3CCOCC3)c2)cc1` (stereo not drawn) [Compound 91], under 1000 nM; to `Nc1ncnc2c3c(n(-c4ccc(Oc5ccccc5)cc4)c12)CCN(C(=O)OCc1ccccc1)C3` [Compound 6], over 1000 nM. Take `CC(=O)Nc1cccc(Oc2ccc(-n3c4c(c5ncnc(N)c53)C(C)OC4)cc2)c1` (stereo not drawn) [Compound 55]: the Ki in assay [1] was under 1000 nM. Still for that read-out and setting: the figure for `CC1OCc2c1c1ncnc(N)c1n2-c1ccc(Oc2cccc(OCc3ccccc3C(N)=O)c2)cc1` (stereo not drawn) [Compound 101] is under 1000 nM; for `Nc1ncnc2c3c(n(-c4ccc(Oc5ccccc5)cc4)c12)CCN(Cc1ccccc1)C3` [Compound 11] it is over 1000 nM. Turning to `Nc1ncnc2c3c(n(-c4ccc(Oc5ccccc5)cc4)c12)CN(Cc1ccccc1)C3` [Compound 10], in assay [1], the Ki was over 1000 nM. Take `Nc1ncnc2c3c(n(-c4ccc(Oc5ccccc5)cc4)c12)CN(C(=O)OCc1ccccc1)C3` [Compound 5]: the Ki in assay [1] was over 1000 nM. Still for that read-out and setting: to `CC1OCc2c1c1ncnc(N)c1n2-c1ccc(Oc2cccc(OCCN(C)C)c2)cc1` (stereo not drawn) [Compound 48] belongs over 1000 nM; to `NCC(=O)N1CCc2c(c3ncnc(N)c3n2-c2ccc(Oc3ccccc3)cc2)C1` [Compound 17], over 1000 nM. The same measure, in the same setting: the figure for `CC1OCc2c1c1ncnc(N)c1n2-c1ccc(Oc2cccc(OCCN3CCOCC3)c2)cc1` (stereo not drawn) [Compound 51] is over 1000 nM. On the same count and under the same terms, to `CC1OCc2c1c1ncnc(N)c1n2-c1ccc(Oc2cccc(OCc3ccc(C(N)=O)cc3)c2)cc1` (stereo not drawn) [Compound 98] belongs under 100 nM.

(Values after patent US9624239B2, “Protein kinase inhibitors” (Pharmascience Inc., priority 2011, dated 2017).)
